# Reference: patent US11066419B2, “1H-pyrrole-2,5-dione compounds and methods of using same” (Frequency Therapeutics, Inc., priority 2016, dated 2021)
# How the values were obtained:
# recombinant human GSK3β = recombinant human GSK3β (Homo sapiens, UniProt P49841); test: In vitro enzymatic assay for inhibition of GSK3β (Kinase-Glo Max luminescence); type: biochemical; conditions: 10 uM ATP, 0.1 mg/ml GSKtide, 30° C. 40 minutes, read-out: Potency Beta
# Procedure: (§1) Enzymatic activities using recombinant human GSK3 using an in vitro enzymatic assay for inhibition GSK3α and GSK3β.
# (§2) The assay was performed using Kinase-Glo Max luminescence kinase assay kit (Promega). It measures kinase activity by quantitating the amount of ATP remaining in solution following a kinase reaction. The luminescent signal from the assay is correlated with the amount of ATP present and is inversely correlated with the amount of kinase activity. The compounds were diluted in 10% DMSO and 5 μl of the dilution was added to a 50 μl reaction so that the final concentration of DMSO is 1% in all of reactions. The enzymatic reactions were conducted at 30° C. for 40 minutes. The 50 μl reaction mixture contains 40 mM Tris, pH 7.4, 10 mM MgCl2, 0.1 mg/ml BSA, 2 mM DTT, 0.1 mg/ml GSKtide substrate, 10 uM ATP and GSK3. After the enzymatic reaction, 50 μl of Kinase-Glo Max Luminescence kinase assay solution (Promega) was added to each reaction and incubate the plate for 15 minutes at room temperature. Luminescence signal was measured using a BioTek Synergy 2 microplate reader.
# (§3) Kinase activity assays were performed in duplicate at each concentration. The luminescence data were analyzed using the computer software, Graphpad Prism. The difference between luminescence intensities in the absence of Kinase (Lut) and in the presence of Kinase (Luc) was defined as 100% activity (Lut−Luc). Using luminescence signal (Lu) in the presence of the compound, % activity was calculated as: % activity={(Lut−Lu)/(Lut−Luc)}×100%, where Lu=the luminescence intensity in the presence of the compound (all percent activities below zero were shown zero in the table).
# (§4) The values of % activity versus a series of compound concentrations were then plotted using non-linear regression analysis of Sigmoidal dose-response curve generated with the equation Y=B+(T−B)/1+10((Log EC50−X)×Hill Slope), where Y=percent activity, B=minimum percent activity, T=maximum percent activity, X=logarithm of compound and Hill Slope=slope factor or Hill coefficient. The IC50 value was determined by the concentration causing a half-maximal percent activity.
# recombinant human GSK3α = recombinant human GSK3α (Homo sapiens, UniProt P49840); test: In vitro enzymatic assay for inhibition of GSK3α (Kinase-Glo Max luminescence); type: biochemical; conditions: 10 uM ATP, 0.1 mg/ml GSKtide, 30° C. 40 minutes, read-out: Potency Alpha
# Sequence of recombinant human GSK3α (P49840 whole entry): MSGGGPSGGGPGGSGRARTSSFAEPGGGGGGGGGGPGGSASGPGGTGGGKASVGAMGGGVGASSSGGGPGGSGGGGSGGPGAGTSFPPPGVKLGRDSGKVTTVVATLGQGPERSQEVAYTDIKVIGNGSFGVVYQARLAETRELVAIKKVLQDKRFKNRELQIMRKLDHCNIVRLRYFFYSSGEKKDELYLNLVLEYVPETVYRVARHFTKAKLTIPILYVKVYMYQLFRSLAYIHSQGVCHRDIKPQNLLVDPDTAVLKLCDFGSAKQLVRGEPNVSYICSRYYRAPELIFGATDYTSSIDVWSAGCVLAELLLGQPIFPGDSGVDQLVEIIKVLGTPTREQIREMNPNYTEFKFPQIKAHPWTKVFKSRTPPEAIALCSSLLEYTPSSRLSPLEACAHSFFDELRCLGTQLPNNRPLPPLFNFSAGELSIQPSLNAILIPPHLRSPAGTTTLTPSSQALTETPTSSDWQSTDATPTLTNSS
# Procedure: as §1, §2, §3, §4
# Lgr5-positive cells = test: Expansion of Lgr5-positive cells (cochlear stem cell expansion, 3D Matrigel culture, flow cytometry for Lgr5-GFP); type: cell-based, mouse; conditions: for EC50: Mus musculus, 240 h, Lgr5-positive cell expansion, cochlear cells of neonatal Lgr5-EGFP-IRES-Cre-ER mice, 10 days in culture, read-out: Potency; for % of Cells: percentage of Lgr5-GFP-positive cells after 10 days (D10) in culture, flow cytometer
# Procedure: Lgr5-EGFP-IRES-Cre-ER mice (Barker et al., 2007) (http://jaxmice.jax.org/strain/008875.html) are used to analyze the effects of small molecules on cochlear stem cell expansion.
# Isolation of stem cells from the inner ear: All animal studies are conducted under an approved institutional protocol according to National Institutes of Health guidelines. For experiments with neonatal mice (postnatal days 1-3), the cochleae are dissected in HBSS and the organ of Corti are separated from the stria vascularis and the modiolus. The organs of Corti are then treated with Cell Recovery Solution (Corning) for 1 h to separate cochlear epithelium from the underlying mesenchyme. Epithelia are then collected and treated with TrypLE (Life Technologies) for 15-20 minutes at 37° C. Single cells obtained by mechanical trituration are filtered (40 μm) and suspended in Matrigel (Corning) for 3D culture.
# Cells are cultured in a 1:1 mixture of DMEM and F12, supplemented with Glutamax (GIBCO), N2, B27 (Invitrogen), EGF (50 ng/ml; Chemicon), bFGF (50 ng/ml; Chemicon), IGF1 (50 ng/ml; Chemicon) and the composition provided herein. Media are changed every other day.
# Lgr5-positive cells are quantified after 10 days (D10) in culture in multiple conditions. Cell colonies are dissociated into single cells using TrypLE (Gibco). The cells are then stained with propidium iodide (PI) and are analyzed using a flow cytometer for Lgr5-GFP expression. The number of GFP-positive cells and the percentage of GFP-positive cells are quantified.
# Sequence of recombinant human GSK3β (P49841 whole entry): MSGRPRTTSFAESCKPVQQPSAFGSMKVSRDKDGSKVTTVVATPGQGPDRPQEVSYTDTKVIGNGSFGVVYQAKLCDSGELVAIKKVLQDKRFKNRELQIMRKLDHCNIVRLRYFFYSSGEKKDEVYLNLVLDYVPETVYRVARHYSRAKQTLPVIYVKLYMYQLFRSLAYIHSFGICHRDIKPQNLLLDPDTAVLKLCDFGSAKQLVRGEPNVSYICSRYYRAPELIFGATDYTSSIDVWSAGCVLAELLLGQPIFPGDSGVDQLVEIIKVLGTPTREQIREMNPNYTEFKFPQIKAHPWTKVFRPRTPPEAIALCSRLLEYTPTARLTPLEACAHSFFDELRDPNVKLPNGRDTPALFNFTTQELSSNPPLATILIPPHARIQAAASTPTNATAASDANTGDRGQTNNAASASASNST
SMILES,IC50 (recombinant human GSK3β) [nM],IC50 (recombinant human GSK3α) [nM],EC50 (Lgr5-positive cells) [nM],% of Cells (Lgr5-positive cells)
C#Cc1cc2c3c(c1)c(C1=C(c4cnc5ccccn45)C(=O)NC1=O)cn3CCN(C(=O)N1CCCCC1)C2 [Compound I-3],1 to 10,1 to 10,1 to 100,+++ (“+++” indicates greater than about 11%)
N#Cc1cc2c3c(c1)c(C1=C(c4cnc5ccccn45)C(=O)NC1=O)cn3CCN(C(=O)N1CC3CCC(C1)O3)C2 [Compound I-14],1 to 10,1 to 10,> 1000,+ (“+” indicates about 0-5%)
O=C1NC(=O)C(c2cnc3ccccn23)=C1c1cn2c3c(cc(C(F)(F)F)cc13)CN(C(=O)N1CCC(CO)CC1)CC2 [Compound I-20],1 to 10,1 to 10,> 1000,+++ (“+++” indicates greater than about 11%)
O=C1NC(=O)C(c2cnc3ccccn23)=C1c1cn2c3c(cc(C(F)(F)F)cc13)CN(C(=O)N1CCC(F)(F)CC1)CC2 [Compound I-17],1 to 10,1 to 10,> 1000,+ (“+” indicates about 0-5%)
O=C1NC(=O)C(c2cnc3ccccn23)=C1c1cn2c3c(cc(F)cc13)CN(C(=O)N1CCC(F)(F)CC1)CC2 [Compound I-7],1 to 10,1 to 10,1 to 100,++ (“++” indicates about 6-10%)
Nc1cc2c3c(c1)c(C1=C(c4cnc5ccccn45)C(=O)NC1=O)cn3CCN(C(=O)N1CCCCC1)C2 [Compound I-4],1 to 10,1 to 10,100 to 1000,+++ (“+++” indicates greater than about 11%)
NCC1CCN(C(=O)N2CCn3cc(C4=C(c5cnc6ccccn56)C(=O)NC4=O)c4cc(F)cc(c43)C2)CC1 [Compound I-19],1 to 10,1 to 10,> 1000,+++ (“+++” indicates greater than about 11%)
N#Cc1cc2c3c(c1)c(C1=C(c4cnc5ccccn45)C(=O)NC1=O)cn3CCN(C(=O)N1CCCCC1)C2 [Compound I-2],1 to 10,1 to 10,1 to 100,+++ (“+++” indicates greater than about 11%)
O=C1NC(=O)C(c2cnc3ccccn23)=C1c1cn2c3c(cc(F)cc13)CN(C(=O)N1CCC(CO)CC1)CC2 [Compound I-6],1 to 10,1 to 10,1 to 100,+++ (“+++” indicates greater than about 11%)
O=C1NC(=O)C(c2cnc3ccccn23)=C1c1cn2c3c(cc(F)cc13)CN(C(=O)N1CC(F)(F)C(F)(F)C(F)(F)C1)CC2 [Compound I-22],1 to 10,1 to 10,1 to 100,++ (“++” indicates about 6-10%)
CC(=O)Nc1cc2c3c(c1)c(C1=C(c4cnc5ccccn45)C(=O)NC1=O)cn3CCN(C(=O)N1CCCCC1)C2 [Compound I-10],1 to 10,1 to 10,> 1000,+ (“+” indicates about 0-5%)
N#Cc1cc2c3c(c1)c(C1=C(c4cnc5ccccn45)C(=O)NC1=O)cn3CCN(C(=O)N1CCCC(F)(F)C1)C2 [Compound I-15],1 to 10,1 to 10,> 1000,++ (“++” indicates about 6-10%)
N#Cc1cc2c3c(c1)c(C1=C(c4cnc5ccccn45)C(=O)NC1=O)cn3CCN(C(=O)N1CCC(CO)CC1)C2 [Compound I-21],1 to 10,1 to 10,> 1000,+++ (“+++” indicates greater than about 11%)

# Now from value to compound, other results behind:
IC50 (recombinant human GSK3β) [nM],IC50 (recombinant human GSK3α) [nM],EC50 (Lgr5-positive cells) [nM],SMILES,% of Cells (Lgr5-positive cells)
1 to 10,1 to 10,1 to 100,O=C1NC(=O)C(c2cnc3ccccn23)=C1c1cn2c3c(cc(F)cc13)CN(C(=O)N1CCC(C(O)C(F)(F)F)CC1)CC2 (stereo not shown) [Compound I-31],+++ (“+++” indicates greater than about 11%)
1 to 10,1 to 10,1 to 100,O=C1NC(=O)C(c2cnc3ccccn23)=C1c1cn2c3c(cc(F)c(F)c13)CN(C(=O)N1CCCCC1)CC2 [Compound I-48],++ (“++” indicates about 6-10%)
1 to 10,1 to 10,100 to 1000,O=C1NC(=O)C(c2cnc3ccccn23)=C1c1cn2c3c(cc(C(F)(F)F)cc13)CN(C(=O)N1CCOCC(F)(F)C1)CC2 [Compound I-44],+++ (“+++” indicates greater than about 11%)
1 to 10,1 to 10,100 to 1000,O=C1NC(=O)C(c2cnc3ccccn23)=C1c1cn2c3c(cc(C(F)(F)F)cc13)CN(C(=O)N1CC(F)(F)OC(F)(F)C1)CC2 [Compound I-43],+++ (“+++” indicates greater than about 11%)
1 to 10,1 to 10,> 1000,CN(CC1CCNCC1)C(=O)N1CCn2cc(C3=C(c4cnc5ccccn45)C(=O)NC3=O)c3cc(F)cc(c32)C1 [Compound I-38],+ (“+” indicates about 0-5%)
1 to 10,1 to 10,> 1000,O=C1NC(=O)C(c2cnc3ccccn23)=C1c1cn2c3c(cc(F)cc13)CN(C(=O)NCC1CCNCC1)CC2 [Compound I-37],+ (“+” indicates about 0-5%)
1 to 10,1 to 10,> 1000,NC1CCN(C(=O)N2CCn3cc(C4=C(c5cnc6ccccn56)C(=O)NC4=O)c4cc(F)cc(c43)C2)CC1 [Compound I-34],++ (“++” indicates about 6-10%)
1 to 10,1 to 10,100 to 1000,CN(C)CC1CCN(C(=O)N2CCn3cc(C4=C(c5cnc6ccccn56)C(=O)NC4=O)c4cc(F)cc(c43)C2)CC1 [Compound I-33],+++ (“+++” indicates greater than about 11%)
1 to 10,1 to 10,> 1000,CNCC1CCN(C(=O)N2CCn3cc(C4=C(c5cnc6ccccn56)C(=O)NC4=O)c4cc(F)cc(c43)C2)CC1 [Compound I-32],+++ (“+++” indicates greater than about 11%)
1 to 10,1 to 10,1 to 100,O=C1NC(=O)C(c2cnc3ccccn23)=C1c1cn2c3c(cc(F)cc13)CN(C(=O)N1CC(F)(F)OC(F)(F)C1)CC2 [Compound I-24],++ (“++” indicates about 6-10%)
1 to 10,1 to 10,> 1000,CNC1CCN(C(=O)N2CCn3cc(C4=C(c5cnc6ccccn56)C(=O)NC4=O)c4cc(F)cc(c43)C2)CC1 [Compound I-35],+ (“+” indicates about 0-5%)
1 to 10,1 to 10,> 1000,CN1CCC2(CCN(C(=O)N3CCn4cc(C5=C(c6cnc7ccccn67)C(=O)NC5=O)c5cc(F)cc(c54)C3)CC2)C1 [Compound I-41],+++ (“+++” indicates greater than about 11%)
